Laboratory results as given in patent US20250051403A1, “ANTIMICROBIAL PEPTIDES, VARIANTS AND CHEMICAL ANALOGUES THEREOF AND THEIR USES” (priority 2021, published 2025).
In brackets after ≈: the same amount, converted by molar mass. Non-standard residues stand in square brackets, D forms with d. Residues, ends and D or L forms follow the SMILES beside them. Abu = CC[C@H](N)C(=O)O

Experiments:
[1] = test system: S. aureus methicillin resistant USA300 (ATCC BAA-1717); assay: MIC, broth microdilution; assay type: cell-based, Staphylococcus aureus; conditions: USA300
[2] = test system: Clostridium perfringens (ATCC 13124); conditions: Table VI
[3] = test system: Salmonella enterica (CIP 80.39); assay: MIC, broth microdilution; assay type: cell-based; conditions: Table VI; Salmonella enterica
Experimental: To standardize the bacterial cell suspension for assay of antibacterial activity, some colonies of each strain grown overnight on MHA (Mueller Hinton Agar. ROTH) plates were suspended in MHB (Mueller Hinton Broth. ROTH) or MHB saline (Mueller Hinton Broth containing 565 mM NaCl) and incubated at 37° C. or 30° C. until visible turbid. This log-phase inoculum was diluted 1:100 in the same culture media. Using sterile 96-well microtiter plates (CELLSTAR. Greiner bio-one), serial 2-fold dilutions (40 to 0.78 μM) of each peptide were prepared in cation-adjusted acetic acid 0.02% with 0.4% BSA (Bovin Serum Albumin fraction V. Boehringer) at a volume of 10 μL/well. Each well was inoculated with 100 μL of the standardized bacterial inoculum, corresponding to a final test concentration of about 10^5 CFU/mL. Antimicrobial activities were expressed as the MIC (Minimal Inhibitory Concentration), the lowest concentration of peptide at which 100% inhibition of microbial growth was observed after 24 h of incubation at 37° C. or 30° C. by measuring OD600 in a microtiter plate reader. The minimal bactericidal concentration (MBC) was defined as the peptide concentration where no colony growth was observed.
The same experiments as described in 1) were performed. For the evaluation of antimicrobial activity against some other strains, a resazurin microtiter assay was used as explained hereinafter.

[4] = test system: B. subtilis nisin resistant (DSMZ 347); conditions: Table VI; Bacillus subtilis Nisin resistant
[5] = test system: P. aeruginosa Fluoroquinolone resistant (CIP 107398); assay: MIC, broth microdilution; assay type: cell-based, Pseudomonas aeruginosa; conditions: CIP 107398
[6] = test system: Helicobacter pylori 21031; assay type: cell-based
Experimental: (§1) Biological (antimicrobial) activity of Michelicin (which comprises two disulfide bridges formed between four cysteines) synthetized with (A) or without (B) a stepwise formation of the desired disulfide pattern, was also determined. An analogue of Michelicin which has the same sequence as Michelicin except for the cysteine residues that are replaced by a neutral analogue of cysteine (i.e. Michelicin-OH 2343 (Abu-3-6-11-15)) was synthesized. Abu means 2-aminobutanoic group. This analogue is devoid of disulfide bridges. This analogue of Michelicin is called Michelicin no SS in Table VI.

Acinetobacter baumannii = assay type: cell-based
Experimental: as §1

Staphylococcus aureus = assay type: cell-based
Experimental: as §1

In the case of `CC[C@H](NC(=O)[C@H](CCCNC(=N)N)NC(=O)CNC(=O)[C@H](CC(N)=O)NC(=O)[C@H](CCCNC(=N)N)NC(=O)[C@H](CC)NC(=O)[C@@H](NC(=O)[C@H](CCCNC(=N)N)NC(=O)[C@@H](NC(=O)[C@H](CC)NC(=O)[C@@H](NC(=O)[C@@H](N)CCCNC(=N)N)C(C)C)C(C)C)[C@@H](C)CC)C(=O)N[C@@H](Cc1ccc(O)cc1)C(=O)N[C@@H](CCCNC(=N)N)C(=O)N[C@@H](CCCNC(=N)N)C(=O)N[C@@H](CC)C(=O)N[C@@H](Cc1c[nH]c2ccccc12)C(=O)N[C@@H](CC(N)=O)C(=O)N[C@H](C(=O)O)[C@@H](C)O` [Michelicin no SS, Michelicin-OH 2343 (Abu-3-6-11-15)] (H-RV[Abu]VRI[Abu]RNGR[Abu]YRR[Abu]WNT-OH; N-terminus assumed), the MIC [1] is reported as over 80 µM, the MIC [2] is reported as over 80 µM and the MIC (Vibrio alginolyticus) is reported as 0.625 µM (≈ 1.46 µg/mL). For the same compound, the MIC [3] was 80 µM (≈ 187 µg/mL), the MIC [4] was 5 µM (≈ 11.7 µg/mL) and the MIC (M. smegmatis mc^2155) was 20 µM (≈ 46.9 µg/mL). It also gave an MIC [5] of over 80 µM, an MIC [6] of 40 µM (≈ 93.7 µg/mL) and an MIC (Acinetobacter baumannii) of 2.5 µM (≈ 5.86 µg/mL). It also gave an MIC (Staphylococcus aureus) of 80 µM (≈ 187 µg/mL) and an MIC (V. diabolicus (HE 800)) of over 80 µM.
